Experiments:
[1] = tested on: IRE1α-GFP in T-REx293 cells; assay: IRE1-GFP foci formation in T-REx293 cells (confocal microscopy); type: cell-based; details: doxycycline-induced IRE1α-GFP
Description: We next used a T-REx293 cell line, containing a genome-integrated doxycycline-inducible IRE1α-GFP fusion gene, to monitor IRE1α oligomerization in vivo ([Li et al., 2010]). In the presence of doxycycline, IRE1α-GFP was expressed and localized to the ER (Figure 2D). […] Furthermore, the foci dissolved by 8 hr of treatment as cells attenuated IRE1α signaling even in the presence of unmitigated ER stress (Figure 2D, upper panels) ([Li et al., 2010]). […] While Tm-induced foci became larger and fewer over time as previously observed, IPA-induced foci remained small and numerous.
T-REx293 cells were split 2 days before imaging onto glass-bottom micro-well dishes (MatTek) at 5 × 10^4 cells/dish. Doxycyclin-containing medium (10 nM doxycycline) was added for 24 hr, withdrawn before imaging and replaced with imaging media (Hank's Balanced Salt Solution [Gibco], 2% FBS, and 5 mM HEPES pH 7.0). Images were acquired on a spinning-disk confocal microscope as described ([Li et al., 2010]).

[2] = tested on: ATF6 transcriptional targets HERPUD1 (HERP1) and DERLIN3 (DERL3); assay: ATF6 target mRNAs HERP1 and DERL3 by RT-PCR in HEK293T cells; type: cell-based; details: IPA 1 μM and 4 μM, Tm
Description: To assess the effects of IPA on the activity of the two other UPR branches, we first examined activation of ATF6. To this end, we monitored mRNA levels by RT-PCR for two ATF6-driven transcriptional target genes, HERP1 and DERL3, in HEK293T cells.
Cells were lysed and total RNA was collected (Total RNA Kit 1, EZ-RNA, EZNA [USA]). PolyA^+ mRNA was reverse transcribed with M-MLV (Invitrogen), and the resulting cDNA was used as a template for PCR amplification across the fragment of XBP1 cDNA containing the intron. Primers used to amplify human XBP1: 5′-[…]-3′ and 5′-[…]-3′. To amplify murine XBP1: 5′-[…]-3′ and 5′-[…]-3′. PCR conditions were as follows: 95°C for 5 min, 95°C for 1 min, 58°C for 30 s, 72°C for 30 s, and 72°C for 5 min, with 20 cycles of amplification. PCR products were resolved on a 2.5% agarose tris-acetate EDTA (TAE) gel. As previously reported, a hybrid amplicon species consisting of unspliced Xbp-1 annealed to spliced Xbp-1 can also be produced through this PCR reaction and was visible as a slower migrating band above the unspliced amplicon. The same cDNA was used as template for PCR of DERLIN-3 and HERPUD1, both ATF6 targets, and GAPDH, which was used as loading control. Primers used included the following: DERLIN-3, 5′-[…]-3′ and 5′-[…]-3′; HERPUD1-1, 5′-[…]-3′ and 5′-[…]-3′; GAPDH, 5′-[…]-3′ and 5′-[…]-3′. […]

[3] = tested on: mouse embryonic fibroblast (MEFs) cells; assay: XBP1 mRNA splicing, PERK shift and eIF2α phosphorylation in WT, Ire1−/− and Perk−/− MEFs; type: cell-based; details: IPA 1 µM, 4 hr
Description: PERK activation by IPA could be due to direct binding of IPA to PERK, or it could be caused by indirect activation of PERK by IRE1. If the latter were true, IPA should not trigger PERK activation in the absence of IRE1. To test this notion, we treated mouse embryonic fibroblasts (MEFs) derived from Ire1α^−/− and Perk^−/− knock-out mice with IPA and monitored XBP1 mRNA splicing, and PERK and eIF2α phosphorylation.
Cells were lysed and total RNA was collected (Total RNA Kit 1, EZ-RNA, EZNA [USA]). PolyA^+ mRNA was reverse transcribed with M-MLV (Invitrogen), and the resulting cDNA was used as a template for PCR amplification across the fragment of XBP1 cDNA containing the intron. Primers used to amplify human XBP1: 5′-[…]-3′ and 5′-[…]-3′. To amplify murine XBP1: 5′-[…]-3′ and 5′-[…]-3′. PCR conditions were as follows: 95°C for 5 min, 95°C for 1 min, 58°C for 30 s, 72°C for 30 s, and 72°C for 5 min, with 20 cycles of amplification. PCR products were resolved on a 2.5% agarose tris-acetate EDTA (TAE) gel. As previously reported, a hybrid amplicon species consisting of unspliced Xbp-1 annealed to spliced Xbp-1 can also be produced through this PCR reaction and was visible as a slower migrating band above the unspliced amplicon. The same cDNA was used as template for PCR of DERLIN-3 and HERPUD1, both ATF6 targets, and GAPDH, which was used as loading control. Primers used included the following: DERLIN-3, 5′-[…]-3′ and 5′-[…]-3′; HERPUD1-1, 5′-[…]-3′ and 5′-[…]-3′; GAPDH, 5′-[…]-3′ and 5′-[…]-3′. PCR conditions were: 95°C × 5 min, 95°C × 1 min, 56°C × 30 s, 72°C for 30 s for 25 cycles, 72°C for 5 min at 4°C. PCR products were resolved on a 2% agarose TAE gel.
Cells were lysed in 50 mM Tris-HCl, 2% SDS, 10% glycerol, 0.01% bromophenol blue, pH 6.8 supplemented with phosphatase inhibitors (Sigma) and protease inhibitors (Roche). 30 μg to 50 μg of total protein was loaded on each lane of 8% or 10% SDS-PAGE gels. The separated proteins were then transferred onto nitrocellulose membranes for immunoblotting. The following antibodies and dilutions were used: anti-β-actin 1:10,000 (A5441, Sigma), anti-total PERK at 1:1000 (C33E10, Cell Signaling Technology), anti-phospho eIF2α at 1:1000 (3597S, Cell Signaling Technology), anti-total eIF2α at 1:1000 (L57A5, Cell Signaling Technology). After overnight incubation with primary antibody, membranes were washed in PBS with 0.05% Tween and incubated in HRP-coupled secondary antibody anti-rabbit (611–1302, Rockland) or anti-mouse (610–1302, Rockland) diluted at 1:5000 in wash buffer. Immunoreactive bands were detected by chemiluminescence.

[4] = target: T1, GST-PERK kinase domain (580–1077 aa) (Mus musculus, UniProt Q9Z2B5); assay: In vitro GST-PERK kinase assay (eIF2α phosphorylation with γ-[32P]-ATP)
T1 sequence (Q9Z2B5 580-1077): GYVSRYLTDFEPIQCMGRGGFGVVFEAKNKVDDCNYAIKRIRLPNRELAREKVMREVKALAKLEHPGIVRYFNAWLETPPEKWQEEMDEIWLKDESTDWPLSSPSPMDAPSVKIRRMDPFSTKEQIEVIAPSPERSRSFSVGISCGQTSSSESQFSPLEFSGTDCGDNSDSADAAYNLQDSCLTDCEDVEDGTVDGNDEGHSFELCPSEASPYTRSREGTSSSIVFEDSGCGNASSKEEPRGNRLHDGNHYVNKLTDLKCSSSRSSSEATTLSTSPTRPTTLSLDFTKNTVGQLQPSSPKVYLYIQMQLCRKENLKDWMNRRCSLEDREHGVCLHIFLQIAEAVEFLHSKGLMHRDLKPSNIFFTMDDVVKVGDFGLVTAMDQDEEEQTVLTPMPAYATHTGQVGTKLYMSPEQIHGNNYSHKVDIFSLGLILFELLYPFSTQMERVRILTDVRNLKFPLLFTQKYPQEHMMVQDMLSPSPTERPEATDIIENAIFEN

[5] = target: IRE1α-KR43 (Homo sapiens, UniProt O75460); assay: FRET-based RNA cleavage assay (fluorescent HP17 substrate) of IRE1α-KR43 RNase activity
Sequence of IRE1α-KR43 (O75460 465-977 limits assumed): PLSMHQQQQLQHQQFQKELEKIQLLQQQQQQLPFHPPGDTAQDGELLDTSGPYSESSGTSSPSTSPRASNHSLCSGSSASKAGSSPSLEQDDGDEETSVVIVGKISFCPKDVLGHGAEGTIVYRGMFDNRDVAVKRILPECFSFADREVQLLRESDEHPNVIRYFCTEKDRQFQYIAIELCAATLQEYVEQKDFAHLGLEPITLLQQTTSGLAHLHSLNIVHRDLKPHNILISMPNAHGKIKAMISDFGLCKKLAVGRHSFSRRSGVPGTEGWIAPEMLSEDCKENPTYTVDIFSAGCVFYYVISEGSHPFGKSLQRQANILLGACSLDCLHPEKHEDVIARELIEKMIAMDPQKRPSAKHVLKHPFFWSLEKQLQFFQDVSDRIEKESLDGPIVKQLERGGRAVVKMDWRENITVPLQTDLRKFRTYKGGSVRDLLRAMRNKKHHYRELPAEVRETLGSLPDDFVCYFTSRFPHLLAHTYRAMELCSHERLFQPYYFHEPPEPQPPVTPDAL

`CSc1ccc(NC(=O)Nc2ccc(Nc3nccc(Nc4cc(C5CC5)[nH]n4)n3)cc2)cc1` [IPA] was tested, and the IRE1α-GFP foci formation [1] was “caused relocalization of IRE1α-GFP into foci”, the “induction of ATF6 target genes HERP1 and DERL3” value [2] was “no detectable induction” and the “PERK phosphorylation and eIF2α phosphorylation in Ire1α−/− MEFs” value ([3]; Ire1α−/− MEFs) was “pronounced PERK phosphorylation”. For the same compound, the “XBP1 mRNA splicing in Ire1α−/− MEFs” value ([3]; Ire1α−/− MEFs) was “no IPA-induced XBP1 mRNA splicing”, the “eIF2α phosphorylation in Perk−/− MEFs” value ([3]; Perk−/− MEFs) was “only a trace amount of IPA-induced eIF2α phosphorylation” and the “UPR branch activation in wild-type MEFs” value ([3]; WT MEFs) was “induced both the PERK and IRE1 branches of the UPR”. For the same compound, the IC50 [4] was 2800 nM and the EC50 [5] was 360 nM.
